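Dose response: 5 concentrations. Exposure: 48 h. Format: 96-well plates. Endpoint: linear interpolation; highest concentration if not reached. Here, GI50 denotes the concentration required for 50% inhibition of growth. TGI: total growth inhibition.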
Experiments:
Assay in all cases: DTP human tumour cell line panel, 48 h
UACC-257 melanoma = tested on: UACC-257 melanoma
OVCAR-4 ovarian = tested on: OVCAR-4 ovarian
SK-MEL-2 melanoma = tested on: SK-MEL-2 melanoma
HS 578T breast = tested on: HS 578T breast
HL-60(TB) leukemia = tested on: HL-60(TB) leukemia
NCI-H226 lung = tested on: NCI-H226 lung
SF-268 CNS = tested on: SF-268 CNS
BT-549 breast = tested on: BT-549 breast
SF-295 CNS = tested on: SF-295 CNS
HCC-2998 colon = tested on: HCC-2998 colon
MDA-MB-231 breast = tested on: MDA-MB-231 breast
HCT-116 colon = tested on: HCT-116 colon
MDA-MB-435 = tested on: MDA-MB-435
MCF7 breast = tested on: MCF7 breast
LOX IMVI melanoma = tested on: LOX IMVI melanoma
IGROV1 ovarian = tested on: IGROV1 ovarian
DU-145 prostate = tested on: DU-145 prostate
MALME-3M melanoma = tested on: MALME-3M melanoma
KM12 colon = tested on: KM12 colon
NCI-H460 lung = tested on: NCI-H460 lung
NCI/ADR-RES ovarian = tested on: NCI/ADR-RES ovarian
HCT-15 colon = tested on: HCT-15 colon
786-0 renal = tested on: 786-0 renal
SR leukemia = tested on: SR leukemia
COLO 205 colon = tested on: COLO 205 colon
SK-MEL-28 melanoma = tested on: SK-MEL-28 melanoma
RPMI-8226 leukemia = tested on: RPMI-8226 leukemia
T-47D breast = tested on: T-47D breast
UO-31 renal = tested on: UO-31 renal
SK-OV-3 ovarian = tested on: SK-OV-3 ovarian
SNB-75 CNS = tested on: SNB-75 CNS
K-562 leukemia = tested on: K-562 leukemia
M14 melanoma = tested on: M14 melanoma
OVCAR-3 ovarian = tested on: OVCAR-3 ovarian
SW-620 colon = tested on: SW-620 colon
U251 CNS = tested on: U251 CNS
CAKI-1 renal = tested on: CAKI-1 renal
ACHN renal = tested on: ACHN renal
A549 NSCLC = tested on: A549 NSCLC
TK-10 renal = tested on: TK-10 renal
PC-3 prostate = tested on: PC-3 prostate
SK-MEL-5 melanoma = tested on: SK-MEL-5 melanoma
CCRF-CEM leukemia = tested on: CCRF-CEM leukemia
MOLT-4 leukemia = tested on: MOLT-4 leukemia
SF-539 CNS = tested on: SF-539 CNS
NCI-H23 lung = tested on: NCI-H23 lung
NCI-H522 lung = tested on: NCI-H522 lung
HOP-62 NSCLC = tested on: HOP-62 NSCLC
SNB-19 CNS = tested on: SNB-19 CNS
RXF 393 renal = tested on: RXF 393 renal
UACC-62 melanoma = tested on: UACC-62 melanoma
SN12C renal = tested on: SN12C renal
OVCAR-5 ovarian = tested on: OVCAR-5 ovarian
OVCAR-8 ovarian = tested on: OVCAR-8 ovarian
A498 renal = tested on: A498 renal
HT29 colon = tested on: HT29 colon

Cn1cc(C2=C(c3cn(CCCO)c4ccccc34)C(=O)NC2=O)c2ccccc21
GI50 (UACC-257 melanoma): 8.15 µM
TGI (UACC-257 melanoma): 24.7 µM
GI50 (OVCAR-4 ovarian): 4.63 µM
TGI (OVCAR-4 ovarian): > 20.7 µM
GI50 (SK-MEL-2 melanoma): 1.79 µM
TGI (SK-MEL-2 melanoma): 4.72 µM
GI50 (HS 578T breast): 5.35 µM
TGI (HS 578T breast): 17.3 µM
GI50 (HL-60(TB) leukemia): 6.1 µM
TGI (HL-60(TB) leukemia): 15.3 µM
GI50 (NCI-H226 lung): 5.05 µM
TGI (NCI-H226 lung): 19.1 µM
GI50 (SF-268 CNS): 6.11 µM
TGI (SF-268 CNS): 17.6 µM
GI50 (BT-549 breast): 3.76 µM
TGI (BT-549 breast): 11.5 µM
GI50 (SF-295 CNS): 5.11 µM
TGI (SF-295 CNS): > 17 µM
GI50 (HCC-2998 colon): 7.83 µM
TGI (HCC-2998 colon): > 25 µM
GI50 (MDA-MB-231 breast): 9.38 µM
TGI (MDA-MB-231 breast): > 25 µM
GI50 (HCT-116 colon): 4.62 µM
TGI (HCT-116 colon): > 17.7 µM
GI50 (MDA-MB-435): 2.34 µM
TGI (MDA-MB-435): > 25 µM
GI50 (MCF7 breast): 2.66 µM
TGI (MCF7 breast): 17.4 µM
GI50 (LOX IMVI melanoma): 6.12 µM
TGI (LOX IMVI melanoma): > 21.4 µM
GI50 (IGROV1 ovarian): 6.04 µM
TGI (IGROV1 ovarian): 16.6 µM
GI50 (DU-145 prostate): 6.97 µM
TGI (DU-145 prostate): > 22.5 µM
GI50 (MALME-3M melanoma): 8.52 µM
TGI (MALME-3M melanoma): 21.3 µM
GI50 (KM12 colon): 1.77 µM
TGI (KM12 colon): 16.8 µM
GI50 (NCI-H460 lung): 4.9 µM
TGI (NCI-H460 lung): 12.5 µM
GI50 (NCI/ADR-RES ovarian): 7.23 µM
TGI (NCI/ADR-RES ovarian): > 22.8 µM
GI50 (HCT-15 colon): 3.33 µM
TGI (HCT-15 colon): > 25 µM
GI50 (786-0 renal): 7.03 µM
TGI (786-0 renal): > 22.8 µM
GI50 (SR leukemia): 2.71 µM
TGI (SR leukemia): > 19.1 µM
GI50 (COLO 205 colon): 5.39 µM
TGI (COLO 205 colon): 16 µM
GI50 (SK-MEL-28 melanoma): 6.49 µM
TGI (SK-MEL-28 melanoma): 18.8 µM
GI50 (RPMI-8226 leukemia): 5.97 µM
TGI (RPMI-8226 leukemia): 15 µM
GI50 (T-47D breast): 4.94 µM
TGI (T-47D breast): 18.6 µM
GI50 (UO-31 renal): 4.04 µM
TGI (UO-31 renal): 14 µM
GI50 (SK-OV-3 ovarian): 4.29 µM
TGI (SK-OV-3 ovarian): > 22.1 µM
GI50 (SNB-75 CNS): 3.11 µM
TGI (SNB-75 CNS): 12.3 µM
GI50 (K-562 leukemia): 5.61 µM
TGI (K-562 leukemia): > 25 µM
GI50 (M14 melanoma): 7.29 µM
TGI (M14 melanoma): > 25 µM
GI50 (OVCAR-3 ovarian): 6 µM
TGI (OVCAR-3 ovarian): > 19.5 µM
GI50 (SW-620 colon): 7.11 µM
TGI (SW-620 colon): > 25 µM
GI50 (U251 CNS): 6.15 µM
TGI (U251 CNS): 19.3 µM
GI50 (CAKI-1 renal): 3.93 µM
TGI (CAKI-1 renal): 16.9 µM
GI50 (ACHN renal): 4.99 µM
TGI (ACHN renal): 19.8 µM
GI50 (A549 NSCLC): 5.68 µM
TGI (A549 NSCLC): 17.5 µM
GI50 (TK-10 renal): 3.96 µM
TGI (TK-10 renal): 13.3 µM
GI50 (PC-3 prostate): 6.8 µM
TGI (PC-3 prostate): 24.6 µM
GI50 (SK-MEL-5 melanoma): 4.2 µM
TGI (SK-MEL-5 melanoma): 10.8 µM
GI50 (CCRF-CEM leukemia): 3.01 µM
TGI (CCRF-CEM leukemia): 18.2 µM
GI50 (MOLT-4 leukemia): 6.05 µM
TGI (MOLT-4 leukemia): > 20.7 µM
GI50 (SF-539 CNS): 4.57 µM
TGI (SF-539 CNS): 11.4 µM
GI50 (NCI-H23 lung): 5.37 µM
TGI (NCI-H23 lung): 18 µM
GI50 (NCI-H522 lung): 3.47 µM
TGI (NCI-H522 lung): 13.2 µM
GI50 (HOP-62 NSCLC): 7 µM
TGI (HOP-62 NSCLC): 19.5 µM
GI50 (SNB-19 CNS): 9.36 µM
TGI (SNB-19 CNS): > 25 µM
GI50 (RXF 393 renal): 3.87 µM
TGI (RXF 393 renal): 9.56 µM
GI50 (UACC-62 melanoma): 5.56 µM
TGI (UACC-62 melanoma): 12.3 µM
GI50 (SN12C renal): 5.25 µM
TGI (SN12C renal): > 25 µM
GI50 (OVCAR-5 ovarian): 11.4 µM
TGI (OVCAR-5 ovarian): > 25 µM
GI50 (OVCAR-8 ovarian): 6.4 µM
TGI (OVCAR-8 ovarian): > 21.1 µM
GI50 (A498 renal): 5.45 µM
TGI (A498 renal): 13.9 µM
GI50 (HT29 colon): 5.4 µM
TGI (HT29 colon): > 19.3 µM

Reference: PubChem BioAssay (NCI)
